The text below walks through data of US8859549B2, “Potassium channel modulators” (AbbVie, Inc., priority 2011, dated 2014).

pEC50: −log10 of the molar value.

The test has as its target T1, KCNQ 2/3 channels (Homo sapiens, UniProt O43525+O43526).
T1 construct: expressed in transfected cells; host or cells: HEK293
In words: KCNQ 2/3 channel activation, thallium flux FLIPR assay (BTC-AM dye). In kind it is cell-based. As to conditions: for Emax: HEK293, maximum response relative to the response of 10 μM retigabine (set at 100%), HEK293 KCNQ2/KCNQ3 cells, read-out: % MAX; for pEC50: HEK293 cells stably expressing human KCNQ2 and KCNQ3 subunits, thallium-induced fluorescence, 4 min compound incubation. Put shortly: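 HEK293 cells stably expressing human KCNQ2/KCNQ3 were loaded with BTC-AM (3 μg/mL, 2 h, RT) and preincubated with compound for 4 min in pH 7.3 gluconate buffer containing 0.1 mM ouabain. Flux was triggered by 6 mM TlNO3/10 mM K2SO4 and read for 3 min; EC50 came from summed responses over basal, with maximum relative to 10 μM retigabine (100%).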

As usually defined, the pEC50 is −log10 of the EC50, conventionally taken in molar units. Lower therefore signals a large EC50.

Regarding `O=C(Cc1cccc(O)c1)Nn1nc(N2CCOCC2)c2ccccc2c1=O` [Example 143, 2-(3-hydroxyphenyl)-N-[4-(morpholin-4-yl)-1-oxophthalazin-2(1H)-yl]acetamide], the Emax was found to be 43.8%. In the case of `O=C(Cc1ccc(O)cc1)Nn1nc(N2CCOCC2)c2ccccc2c1=O` [Example 144, 2-(4-hydroxyphenyl)-N-[4-(morpholin-4-yl)-1-oxophthalazin-2(1H)-yl]acetamide], the Emax worked out at 39.9% and the pEC50 is 5.16.

For `COc1ccccc1CC(=O)Nn1nc(N2CCOCC2)c2ccccc2c1=O` [Example 145, 2-(2-methoxyphenyl)-N-[4-(morpholin-4-yl)-1-oxophthalazin-2(1H)-yl]acetamide], the Emax was found to be 1.73%.

For the molecule `COc1cccc(CC(=O)Nn2nc(N3CCOCC3)c3ccccc3c2=O)c1` [Example 146, 2-(3-methoxyphenyl)-N-[4-(morpholin-4-yl)-1-oxophthalazin-2(1H)-yl]acetamide], the Emax was determined as 17.6%. `COc1ccc(CC(=O)Nn2nc(N3CCOCC3)c3ccccc3c2=O)cc1` [Example 147, 2-(4-methoxyphenyl)-N-[4-(morpholin-4-yl)-1-oxophthalazin-2(1H)-yl]acetamide]: the Emax amounted to 18.7%. Turning to `O=C(Cc1ccccc1F)Nn1nc(N2CCOCC2)c2ccccc2c1=O` [Example 148, 2-(2-fluorophenyl)-N-[4-(morpholin-4-yl)-1-oxophthalazin-2(1H)-yl]acetamide], the Emax was 18.7%. In the case of `O=C(Cc1cccc(F)c1)Nn1nc(N2CCOCC2)c2ccccc2c1=O` [Example 149, 2-(3-fluorophenyl)-N-[4-(morpholin-4-yl)-1-oxophthalazin-2(1H)-yl]acetamide], the Emax amounted to 82.7% and the pEC50 is 5.28. For `O=C(Cc1ccc(F)cc1)Nn1nc(N2CCOCC2)c2ccccc2c1=O` [Example 150, 2-(4-fluorophenyl)-N-[4-(morpholin-4-yl)-1-oxophthalazin-2(1H)-yl]acetamide], the Emax was found to be 71.7% and the pEC50 was 4.89. On to `O=C(Cc1ccccc1Cl)Nn1nc(N2CCOCC2)c2ccccc2c1=O` [Example 151, 2-(2-chlorophenyl)-N-[4-(morpholin-4-yl)-1-oxophthalazin-2(1H)-yl]acetamide], for which the Emax is 7.89%. For the molecule `O=C(Cc1cccc(Cl)c1)Nn1nc(N2CCOCC2)c2ccccc2c1=O` [Example 152, 2-(3-chlorophenyl)-N-[4-(morpholin-4-yl)-1-oxophthalazin-2(1H)-yl]acetamide], the Emax came out at 80% and the negative-log EC50 (pEC50) is 5.26. As for `O=C(Cc1ccccc1Br)Nn1nc(N2CCOCC2)c2ccccc2c1=O` [Example 153, 2-(2-bromophenyl)-N-[4-(morpholin-4-yl)-1-oxophthalazin-2(1H)-yl]acetamide], the Emax was 1.17%.

`O=C(Cc1cccc(Br)c1)Nn1nc(N2CCOCC2)c2ccccc2c1=O` [Example 154, 2-(3-bromophenyl)-N-[4-(morpholin-4-yl)-1-oxophthalazin-2(1H)-yl]acetamide]: the Emax was found to be 114% and the negative-log EC50 (pEC50) is 5.54. For `O=C(Cc1ccc(Br)cc1)Nn1nc(N2CCOCC2)c2ccccc2c1=O` [Example 155, 2-(4-bromophenyl)-N-[4-(morpholin-4-yl)-1-oxophthalazin-2(1H)-yl]acetamide], in that order: 110% and 5.59. `O=C(Cc1cccc([N+](=O)[O-])c1)Nn1nc(N2CCOCC2)c2ccccc2c1=O` [Example 156, N-[4-(morpholin-4-yl)-1-oxophthalazin-2(1H)-yl]-2-(3-nitrophenyl)acetamide]: the Emax was 32.8%. On to `O=C(Cc1ccc(-c2ccccc2)cc1)Nn1nc(N2CCOCC2)c2ccccc2c1=O` [Example 158, 2-(biphenyl-4-yl)-N-[4-(morpholin-4-yl)-1-oxophthalazin-2(1H)-yl]acetamide], for which the Emax came out at 6.84%.

Take `O=C(Cc1cccc(C(F)(F)F)c1)Nn1nc(N2CCOCC2)c2ccccc2c1=O` [Example 160, N-[4-(morpholin-4-yl)-1-oxophthalazin-2(1H)-yl]-2-[3-(trifluoromethyl)phenyl]acetamide]: the Emax amounted to 62.1% and the negative logarithm of the EC50 (pEC50) is 5.01.

On to `O=C(Cc1ccc(C(F)(F)F)cc1)Nn1nc(N2CCOCC2)c2ccccc2c1=O` [Example 161, N-[4-(morpholin-4-yl)-1-oxophthalazin-2(1H)-yl]-2-[4-(trifluoromethyl)phenyl]acetamide], for which the Emax is 93%. Regarding `O=C(Cc1cccc(OC(F)(F)F)c1)Nn1nc(N2CCOCC2)c2ccccc2c1=O` [Example 162, N-[4-(morpholin-4-yl)-1-oxophthalazin-2(1H)-yl]-2-[3-(trifluoromethoxy)phenyl]acetamide], the Emax was found to be 87.4% and the pEC50 was 5.82.

For the molecule `O=C(Cc1ccc(Oc2ccccc2)cc1)Nn1nc(N2CCOCC2)c2ccccc2c1=O` [Example 163, N-[4-(morpholin-4-yl)-1-oxophthalazin-2(1H)-yl]-2-(4-phenoxyphenyl)acetamide], the Emax was 30.8%. The same measure, in the same setting: for `O=C(Cc1ccc(OCc2ccccc2)cc1)Nn1nc(N2CCOCC2)c2ccccc2c1=O` [Example 164, 2-[4-(benzyloxy)phenyl]-N-[4-(morpholin-4-yl)-1-oxophthalazin-2(1H)-yl]acetamide] the value was 22%; for `O=C(Cc1cccc2ccccc12)Nn1nc(N2CCOCC2)c2ccccc2c1=O` [Example 165, N-[4-(morpholin-4-yl)-1-oxophthalazin-2(1H)-yl]-2-(naphthalen-1-yl)acetamide], 7.96%; for `O=C(Cc1ccc2ccccc2c1)Nn1nc(N2CCOCC2)c2ccccc2c1=O` [Example 166, N-[4-(morpholin-4-yl)-1-oxophthalazin-2(1H)-yl]-2-(naphthalen-2-yl)acetamide], 15.6%. With `Cc1ccc(C)c(CC(=O)Nn2nc(N3CCOCC3)c3ccccc3c2=O)c1` [Example 167, 2-(2,5-dimethylphenyl)-N-[4-(morpholin-4-yl)-1-oxophthalazin-2(1H)-yl]acetamide], the Emax came to 3%. In the case of `Cc1cc(C)c(CC(=O)Nn2nc(N3CCOCC3)c3ccccc3c2=O)c(C)c1` [Example 168, N-[4-(morpholin-4-yl)-1-oxophthalazin-2(1H)-yl]-2-(2,4,6-trimethylphenyl)acetamide], the Emax was found to be 1.91%.

In the case of `COc1cccc(CC(=O)Nn2nc(N3CCOCC3)c3ccccc3c2=O)c1OC` [Example 169, 2-(2,3-dimethoxyphenyl)-N-[4-(morpholin-4-yl)-1-oxophthalazin-2(1H)-yl]acetamide], the Emax was found to be 23.6%. For `COc1ccc(CC(=O)Nn2nc(N3CCOCC3)c3ccccc3c2=O)c(OC)c1` [Example 170, 2-(2,4-dimethoxyphenyl)-N-[4-(morpholin-4-yl)-1-oxophthalazin-2(1H)-yl]acetamide], the Emax stood at 34.2%. Turning to `COc1ccc(CC(=O)Nn2nc(N3CCOCC3)c3ccccc3c2=O)cc1OC` [Example 172, 2-(3,4-dimethoxyphenyl)-N-[4-(morpholin-4-yl)-1-oxophthalazin-2(1H)-yl]acetamide], the Emax is 51.7%.

In the case of `COc1cc(CC(=O)Nn2nc(N3CCOCC3)c3ccccc3c2=O)cc(OC)c1` [Example 173, 2-(3,5-dimethoxyphenyl)-N-[4-(morpholin-4-yl)-1-oxophthalazin-2(1H)-yl]acetamide], the Emax stood at 33.9%.
